According to article PMC4666608, “Metabolic Profiling of Chicken Embryos Exposed to Perfluorooctanoic Acid (PFOA) and Agonists to Peroxisome Proliferator-Activated Receptors” (PLoS ONE, 2015):
Marks after values point to notes of the source that are not given here.

Tested on: chicken embryos
Experiment: Metabolic profiling of blood plasma (GC-MS, LC-MS, OPLS-DA)
Assay type: in vivo, Gallus gallus domesticus
Details: LC
Description: Controls were injected with 20 μL vehicle only (DMSO).
Plasma was collected and stored at -70°C.
Metabolites in allantoic fluid and blood plasma were analyzed using gas chromatography-mass spectrometry (GC-MS) and liquid chromatography-mass spectrometry (LC-MS) as described in S1 Methods. Prior to GC-MS and LC-MS analysis, allantoic fluid (100 μL) and blood plasma (50 μL) were extracted. To each sample, 900 μL (allantoic fluid) or 450 μL (blood plasma) of extraction buffer (90/10 v/v methanol:water) including all internal standards were added. Standards for GC-MS were proline, succinic acid, glutamic acid, salicylic acid, alpha-ketoglutarate, putrescine, myristic acid, hexadecanoic acid, cholesterol, and sucrose. Standards for LC-MS were Val-Tyr-Val, Leu-enkephalin, sulfadimethoxine and reserpine. Samples were homogenized by shaking in a bead mill at a frequency of 30 Hz for 3 minutes and proteins were precipitated at +4°C on ice. The samples were centrifuged at +4°C, 14000 rpm, for 10 min. Then, 200 μL supernatant was transferred to a GC microvial and 200 μL was transferred to an LC microvial, and solvents were evaporated. Samples from the four replicate experiments were analyzed using in chronological order and within each replicate experiment the run order of the individual samples was randomized.
Multivariate statistical analyses of metabolite profiles were performed using the software package SIMCA-P version 13.0 (Umetrics, Umeå, Sweden). Data was centered and scaled to variance 1 (UV scaling) prior to modelling. To reduce unintended systematic variation caused by sample processing and instrument drift, GC-MS and LC-MS metabolite amounts (expressed as the area under the chromatographic peak) were normalized by Orthogonal Partial Least Squares analysis (O2PLS) prior to multivariate data analysis. O2PLS finds common (predictive) and unique (orthogonal) variation in two data matrices. If applied to find the common variation between the data matrix containing the measured metabolite concentrations and a matrix containing only the internal standards, the only common (predictive) variation expected is due to the unintended systematic variation. By deleting the contribution of the predictive latent variables, that variation can be removed from the data. Models obtained after this normalization contain in general less latent variables, and this simplification helps when deciding on the number of latent variables to be used. Following normalization, GC-MS and LC-MS data were analyzed together. Initially, a global Principal Component Analysis (PCA) was performed to get an overview of groups and trends and to identify outliers. Projections to latent structures by means of Orthogonal Partial Least Squares Discriminant Analysis (OPLS-DA) was used to model the relationship between the X-matrix (metabolite concentrations) and the Y matrix (class, i.e. exposure group or sex), and to find x-variables that were related to class belonging. OPLS-DA is a supervised prediction and regression method that rotates the projection plane to find the maximum covariance between the data and the class assignment. All groups were first analyzed together in a 5-class OPLS-DA and then each exposure group was analyzed against the control group in a 2-class OPLS-DA. Sex differences were analyzed both using the whole data set and in each group separately using 2-class OPLS-DA, with females and males as the two classes. Only variables with 80% or more nonzero values were included in the statistical models. […] The validity of each model was also checked using CV-ANOVA (ANOVA of the cross-validated residuals). A significance level of p < 0.05 was used. For each model, R ^2 X, R ^2 Y and Q ^2 values were calculated, where R ^2 X is a measure of the fraction of x variation modeled in the extracted latent variables, R ^2 Y is a measure of the fraction of y variation modeled and Q ^2 is an estimate of the predictive ability of the model and is calculated by cross-validation. […]

O=C(O)C(F)(F)C(F)(F)C(F)(F)C(F)(F)C(F)(F)C(F)(F)C(F)(F)F [PFOA, perfluorooctanoic acid]
Mean concentration relative to control, feature 634.2403@1.9467853 (PFOA 50): 1 | Mean concentration relative to control, feature 644.1614@0.7647065 (PFOA 50): 1.1 | Mean concentration relative to control, feature 659.5483@11.4915495 (PFOA 50): 1.0 | Mean concentration relative to control, feature 698.2598@1.3599721 (PFOA 50): 1.1 | Mean concentration relative to control, feature 700.5514@10.765638 (PFOA 50): 1.1 | Mean concentration relative to control, feature 755.5465@10.73882 (PFOA 50): 1 | Mean concentration relative to control, feature 827.5078@8.831237 (PFOA 50): 1.2 | Mean concentration relative to control, feature 875.4661@10.5661745 (PFOA 50): 1.0 | Mean concentration relative to control, feature 1262.4865@1.947075 (PFOA 50): 1 | Mean concentration relative to control, feature 1316.4163@1.9465046 (PFOA 50): 1.1* | Mean concentration relative to control, feature 1591.051@5.0189176 (PFOA 50): 1 | Mean concentration relative to control, feature 1591.388@5.0202384 (PFOA 50): 1 | Mean concentration relative to control, feature 1591.7203@5.018071 (PFOA 50): 1 | Mean concentration relative to control, feature 118.0284@2.480333 (C4H6O4) (PFOA 250): 1 | Mean concentration relative to control, feature 122.0486@0.675613 (PFOA 250): 1 | Mean concentration relative to control, feature 126.0428@1.2278157 (Thymine) (PFOA 250): 1.1* | Mean concentration relative to control, feature 146.0362@0.7772238 (PFOA 250): 1 | Mean concentration relative to control, feature 159.0686@1.1608156 (PFOA 250): 1.4 | Mean concentration relative to control, feature 164.0449@0.7694838 (PFOA 250): 1 | Mean concentration relative to control, feature 202.1024@5.0303197 (C8H14N2O4) (PFOA 250): 1.1 | Mean concentration relative to control, feature 203.1162@0.5130696 (PFOA 250): 0.9 | Mean concentration relative to control, feature 213.2458@7.4887733 (PFOA 250): 1.2** | Mean concentration relative to control, feature 215.047@1.6260729 (C5H14NO6P) (PFOA 250): 1.0 | Mean concentration relative to control, feature 226.0721@1.9460537 (PFOA 250): 1 | Mean concentration relative to control, feature 231.0174@1.6241412 (PFOA 250): 0.9 | Mean concentration relative to control, feature 233.1265@2.535991 (PFOA 250): 1.1 | Mean concentration relative to control, feature 250.1317@2.1334834 (PFOA 250): 0.9 | Mean concentration relative to control, feature 260.0508@0.69984084 (PFOA 250): 0.7* | Mean concentration relative to control, feature 276.0173@1.6283482 (PFOA 250): 0.9 | Mean concentration relative to control, feature 278.0939@1.3354088 (PFOA 250): 1 | Mean concentration relative to control, feature 293.0903@1.5739433 (PFOA 250): 1 | Mean concentration relative to control, feature 307.2147@7.5065937 (C18H29NO3) (PFOA 250): 2.0*** | Mean concentration relative to control, feature 310.178@7.5343466 (PFOA 250): 1.2** | Mean concentration relative to control, feature 339.3861@9.528681 (PFOA 250): 1.4* | Mean concentration relative to control, feature 342.2883@7.526812 (PFOA 250): 0.7*** | Mean concentration relative to control, feature 348.0675@1.5761927 (PFOA 250): 1 | Mean concentration relative to control, feature 355.9454@0.68034226 (PFOA 250): 1 | Mean concentration relative to control, feature 362.1467@0.8461036 (PFOA 250): 1.0 | Mean concentration relative to control, feature 366.1431@1.4228548 (PFOA 250): 1 | Mean concentration relative to control, feature 373.296@9.044806 (PFOA 250): 1.1 | Mean concentration relative to control, feature 375.3108@8.995564 (PFOA 250): 1 | Mean concentration relative to control, feature 389.2686@9.046645 (PFOA 250): 1 | Mean concentration relative to control, feature 407.0999@1.585909 (PFOA 250): 1 | Mean concentration relative to control, feature 412.135@2.4779084 (C17H24N4O6S) (PFOA 250): 1 | Mean concentration relative to control, feature 444.3607@10.33052 (PFOA 250): 0.7* | Mean concentration relative to control, feature 471.9819@0.685074 (PFOA 250): 1.1 | Mean concentration relative to control, feature 489.1508@8.562614 (PFOA 250): 0.8 | Mean concentration relative to control, feature 509.1184@2.4798179 (PFOA 250): 1 | Mean concentration relative to control, feature 525.2855@8.361063 (PFOA 250): 1 | Mean concentration relative to control, feature 545.2492@8.463657 (PFOA 250): 1.1 | Mean concentration relative to control, feature 558.4095@9.459733 (PFOA 250): 1 | Mean concentration relative to control, feature 565.1902@0.7699907 (PFOA 250): 1.0 | Mean concentration relative to control, feature 577.2747@9.25652 (PFOA 250): 1.1 | Mean concentration relative to control, feature 581.1643@0.77029324 (PFOA 250): 1.1 | Mean concentration relative to control, feature 634.2403@1.9467853 (PFOA 250): 1 | Mean concentration relative to control, feature 644.1614@0.7647065 (PFOA 250): 1.1* | Mean concentration relative to control, feature 659.5483@11.4915495 (PFOA 250): 0.9 | Mean concentration relative to control, feature 698.2598@1.3599721 (PFOA 250): 1.1 | Mean concentration relative to control, feature 700.5514@10.765638 (PFOA 250): 1.1 | Mean concentration relative to control, feature 755.5465@10.73882 (PFOA 250): 1.2 | Mean concentration relative to control, feature 827.5078@8.831237 (PFOA 250): 1.2 | Mean concentration relative to control, feature 875.4661@10.5661745 (PFOA 250): 1.0 | Mean concentration relative to control, feature 1262.4865@1.947075 (PFOA 250): 1 | Mean concentration relative to control, feature 1316.4163@1.9465046 (PFOA 250): 1.0 | Mean concentration relative to control, feature 1591.051@5.0189176 (PFOA 250): 1 | Mean concentration relative to control, feature 1591.388@5.0202384 (PFOA 250): 0.9 | Mean concentration relative to control, feature 1591.7203@5.018071 (PFOA 250): 0.9
